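Values below derive from 48-hour exposures of cells grown in 96-well plates, with endpoints linearly interpolated between the two concentrations bracketing the appropriate inhibition level. The concentration for 50% growth inhibition is given as GI50. TGI denotes the concentration required for complete inhibition of growth.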
What was measured:
Experiment in all cases: NCI tumour cell line growth inhibition, 48 h
A498 renal = tested on: A498 renal
A549 NSCLC = tested on: A549 NSCLC
ACHN renal = tested on: ACHN renal
CAKI-1 renal = tested on: CAKI-1 renal
CCRF-CEM leukemia = tested on: CCRF-CEM leukemia
COLO 205 colon = tested on: COLO 205 colon
DU-145 prostate = tested on: DU-145 prostate
EKVX NSCLC = tested on: EKVX NSCLC
HCC-2998 colon = tested on: HCC-2998 colon
HCT-116 colon = tested on: HCT-116 colon
HCT-15 colon = tested on: HCT-15 colon
HL-60(TB) leukemia = tested on: HL-60(TB) leukemia
HOP-62 NSCLC = tested on: HOP-62 NSCLC
HOP-92 NSCLC = tested on: HOP-92 NSCLC
HS 578T breast = tested on: HS 578T breast
HT29 colon = tested on: HT29 colon
IGROV1 ovarian = tested on: IGROV1 ovarian
K-562 leukemia = tested on: K-562 leukemia
KM12 colon = tested on: KM12 colon
LOX IMVI melanoma = tested on: LOX IMVI melanoma
M14 melanoma = tested on: M14 melanoma
MALME-3M melanoma = tested on: MALME-3M melanoma
MCF7 breast = tested on: MCF7 breast
MDA-MB-231 breast = tested on: MDA-MB-231 breast
MDA-MB-435 = tested on: MDA-MB-435
MDA-MB-468 breast = tested on: MDA-MB-468 breast
MOLT-4 leukemia = tested on: MOLT-4 leukemia
NCI-H226 lung = tested on: NCI-H226 lung
NCI-H23 lung = tested on: NCI-H23 lung
NCI-H460 lung = tested on: NCI-H460 lung
NCI-H522 lung = tested on: NCI-H522 lung
NCI/ADR-RES ovarian = tested on: NCI/ADR-RES ovarian
OVCAR-3 ovarian = tested on: OVCAR-3 ovarian
OVCAR-4 ovarian = tested on: OVCAR-4 ovarian
OVCAR-5 ovarian = tested on: OVCAR-5 ovarian
OVCAR-8 ovarian = tested on: OVCAR-8 ovarian
PC-3 prostate = tested on: PC-3 prostate
RPMI-8226 leukemia = tested on: RPMI-8226 leukemia
RXF 393 renal = tested on: RXF 393 renal
SF-268 CNS = tested on: SF-268 CNS
SF-295 CNS = tested on: SF-295 CNS
SF-539 CNS = tested on: SF-539 CNS
SK-MEL-2 melanoma = tested on: SK-MEL-2 melanoma
SK-MEL-28 melanoma = tested on: SK-MEL-28 melanoma
SK-MEL-5 melanoma = tested on: SK-MEL-5 melanoma
SK-OV-3 ovarian = tested on: SK-OV-3 ovarian
SN12C renal = tested on: SN12C renal
SNB-19 CNS = tested on: SNB-19 CNS
SNB-75 CNS = tested on: SNB-75 CNS
SR leukemia = tested on: SR leukemia
SW-620 colon = tested on: SW-620 colon
T-47D breast = tested on: T-47D breast
TK-10 renal = tested on: TK-10 renal
U251 CNS = tested on: U251 CNS
UACC-257 melanoma = tested on: UACC-257 melanoma
UACC-62 melanoma = tested on: UACC-62 melanoma
UO-31 renal = tested on: UO-31 renal

Question: Which results are given for COc1ccc(-c2nc3ccc(-c4nnc(SCC(=O)Nc5ccc(/C(C)=N\O)cc5)o4)cc3[nH]2)cc1?
Answer: GI50 (A498 renal): 22.7 µM; TGI (A498 renal): 37.2 µM; GI50 (A549 NSCLC): 14.1 µM; TGI (A549 NSCLC): 35.6 µM; GI50 (ACHN renal): 13 µM; TGI (ACHN renal): 35.2 µM; GI50 (CAKI-1 renal): 5.93 µM; TGI (CAKI-1 renal): 25 µM; GI50 (CCRF-CEM leukemia): 7.22 µM; TGI (CCRF-CEM leukemia): > 100 µM; GI50 (COLO 205 colon): 26.2 µM; TGI (COLO 205 colon): > 100 µM; GI50 (DU-145 prostate): 14.8 µM; TGI (DU-145 prostate): 31.8 µM; GI50 (EKVX NSCLC): 17.1 µM; TGI (EKVX NSCLC): 48.8 µM; GI50 (HCC-2998 colon): 50.8 µM; TGI (HCC-2998 colon): > 100 µM; GI50 (HCT-116 colon): 3.31 µM; TGI (HCT-116 colon): > 100 µM; GI50 (HCT-15 colon): > 100 µM; TGI (HCT-15 colon): > 100 µM; GI50 (HL-60(TB) leukemia): 19.5 µM; TGI (HL-60(TB) leukemia): > 100 µM; GI50 (HOP-62 NSCLC): 22.9 µM; TGI (HOP-62 NSCLC): > 100 µM; GI50 (HOP-92 NSCLC): 4.14 µM; TGI (HOP-92 NSCLC): 19.7 µM; GI50 (HS 578T breast): 2.75 µM; TGI (HS 578T breast): 8.15 µM; GI50 (HT29 colon): 13.8 µM; TGI (HT29 colon): 35.6 µM; GI50 (IGROV1 ovarian): 12 µM; TGI (IGROV1 ovarian): 24.3 µM; GI50 (K-562 leukemia): 3.68 µM; TGI (K-562 leukemia): > 100 µM; GI50 (KM12 colon): 10.8 µM; TGI (KM12 colon): > 100 µM; GI50 (LOX IMVI melanoma): 5.69 µM; TGI (LOX IMVI melanoma): 19.4 µM; GI50 (M14 melanoma): 3.05 µM; TGI (M14 melanoma): > 100 µM; GI50 (MALME-3M melanoma): 1.69 µM; TGI (MALME-3M melanoma): 3.95 µM; GI50 (MCF7 breast): 8.61 µM; TGI (MCF7 breast): 30.9 µM; GI50 (MDA-MB-231 breast): 3.83 µM; TGI (MDA-MB-231 breast): 13.4 µM; GI50 (MDA-MB-435): 4 µM; TGI (MDA-MB-435): 18.1 µM; GI50 (MDA-MB-468 breast): 6.35 µM; TGI (MDA-MB-468 breast): 19.3 µM; GI50 (MOLT-4 leukemia): 9.01 µM; TGI (MOLT-4 leukemia): > 100 µM; GI50 (NCI-H226 lung): 11.7 µM; TGI (NCI-H226 lung): 33.2 µM; GI50 (NCI-H23 lung): 11 µM; TGI (NCI-H23 lung): 33.9 µM; GI50 (NCI-H460 lung): 15 µM; TGI (NCI-H460 lung): 53 µM; GI50 (NCI-H522 lung): 6.37 µM; TGI (NCI-H522 lung): 23 µM; GI50 (NCI/ADR-RES ovarian): > 100 µM; TGI (NCI/ADR-RES ovarian): > 100 µM; GI50 (OVCAR-3 ovarian): 12.7 µM; TGI (OVCAR-3 ovarian): 38.1 µM; GI50 (OVCAR-4 ovarian): 20.9 µM; TGI (OVCAR-4 ovarian): 91.7 µM; GI50 (OVCAR-5 ovarian): 19.9 µM; TGI (OVCAR-5 ovarian): 41 µM; GI50 (OVCAR-8 ovarian): 7.7 µM; TGI (OVCAR-8 ovarian): 44.6 µM; GI50 (PC-3 prostate): 3.05 µM; TGI (PC-3 prostate): 10.8 µM; GI50 (RPMI-8226 leukemia): 4 µM; TGI (RPMI-8226 leukemia): > 100 µM; GI50 (RXF 393 renal): 2.03 µM; TGI (RXF 393 renal): 5.18 µM; GI50 (SF-268 CNS): 4.38 µM; TGI (SF-268 CNS): 23.1 µM; GI50 (SF-295 CNS): 14.2 µM; TGI (SF-295 CNS): 32.8 µM; GI50 (SF-539 CNS): 2.15 µM; TGI (SF-539 CNS): 6.35 µM; GI50 (SK-MEL-2 melanoma): 5.27 µM; TGI (SK-MEL-2 melanoma): 17.8 µM; GI50 (SK-MEL-28 melanoma): 2.05 µM; TGI (SK-MEL-28 melanoma): 4.03 µM; GI50 (SK-MEL-5 melanoma): 1.68 µM; TGI (SK-MEL-5 melanoma): 3.66 µM; GI50 (SK-OV-3 ovarian): 12.2 µM; TGI (SK-OV-3 ovarian): 28.8 µM; GI50 (SN12C renal): 11.6 µM; TGI (SN12C renal): 28 µM; GI50 (SNB-19 CNS): 13.1 µM; TGI (SNB-19 CNS): 28.3 µM; GI50 (SNB-75 CNS): 2.8 µM; TGI (SNB-75 CNS): 14.9 µM; GI50 (SR leukemia): > 100 µM; TGI (SR leukemia): > 100 µM; GI50 (SW-620 colon): 26.1 µM; TGI (SW-620 colon): 87.6 µM; GI50 (T-47D breast): 10 µM; TGI (T-47D breast): 34.8 µM; GI50 (TK-10 renal): 19.8 µM; TGI (TK-10 renal): 37.5 µM; GI50 (U251 CNS): 4.3 µM; TGI (U251 CNS): 20.4 µM; GI50 (UACC-257 melanoma): 4.31 µM; TGI (UACC-257 melanoma): 17.2 µM; GI50 (UACC-62 melanoma): 3.2 µM; TGI (UACC-62 melanoma): 12 µM; GI50 (UO-31 renal): 33.5 µM; TGI (UO-31 renal): > 100 µM

From PubChem BioAssay (NCI)
